Values of other authors, collected in patent US7189798B2, “Composition containing mixture of dihydroxybutane sulfonates” (Eastman Chemical Company, priority 2001, dated 2007).

Conditions: in vivo

OC[C@H]1O[C@@H]2O[C@H]3[C@H](O)[C@@H](O)[C@@H](O[C@H]4[C@H](O)[C@@H](O)[C@@H](O[C@H]5[C@H](O)[C@@H](O)[C@@H](O[C@H]6[C@H](O)[C@@H](O)[C@@H](O[C@H]7[C@H](O)[C@@H](O)[C@@H](O[C@H]8[C@H](O)[C@@H](O)[C@@H](O[C@H]1[C@H](O)[C@H]2O)O[C@@H]8CO)O[C@@H]7CO)O[C@@H]6CO)O[C@@H]5CO)O[C@@H]4CO)O[C@@H]3CO [β-CD, β-cyclodextrin]
Renal and liver damage after parenteral administration: cause renal and liver damage
